For data set [1] the following is noted: in DMSO; according to Benson and Kues 1977; cited from earlier work.
Another data set is described as follows: VIS/NIR absorption. As to conditions: H2O. Format: physicochemical.

In the case of `CC1(C)C(/C=C/C=C/C=C/C=C2\N(CCCCS(=O)(=O)O)c3ccc4ccccc4c3C2(C)C)=[N+](CCCCS(=O)(=O)[O-])c2ccc3ccccc3c21` [indocyanine green], in data set [1], the “Fluorescence quantum yield Q (standard)” value is 13%.

`CC(=O)c1ccc2c(c1)C(C)(C)C(C=CC=CC=CC=C1N(CCCCS(=O)(=O)[O-])c3ccccc3C1(C)C)=[N+]2CCCCS(=O)(=O)[O-].[Na+]` [compound 1, 5-(1-oxoethyl)-1,1′-(4-sulfobutyl)-indotricarbocyanine-sodium salt]: the “Absorption λmax” value in the data set “VIS/NIR absorption” amounted to 748 nm. In addition, the “Absorption coefficient ξ at λmax” value in “VIS/NIR absorption” (748 nm) is 14,800 1 mol^−1 cm^−1.

The values above are taken from patent US6534041B1, “Acid-labile and enzymatically divisible dye compounds for diagnosis with near infrared light and for therapy” (Institute for Diagnostic Research GmbH of the Free …, priority 1997, dated 2003).
